Measured values: patent US11969476B2, “Antibody molecule-drug conjugates and uses thereof” (priority 2020, dated 2024)
In brackets after ≈: the same amount, converted by molar mass. Ends that are not written are not given here.

Tests used:
P. aeruginosa BAA-2108 = tested on: P. aeruginosa BAA-2108; design: key: R = Resistant; S = Suspectible; I = Intermediate; NT = Note Tested; conditions: strain BAA-2108, isolated from human sputum; cited from earlier work
P. aeruginosa BAA-2109 = tested on: P. aeruginosa BAA-2109; design: key: R = Resistant; S = Suspectible; I = Intermediate; NT = Note Tested; conditions: strain BAA-2109, isolated from human sputum; cited from earlier work
P. aeruginosa BAA-2110 = tested on: P. aeruginosa BAA-2110; design: key: R = Resistant; S = Suspectible; I = Intermediate; NT = Note Tested; conditions: strain BAA-2110, isolated from human sputum; cited from earlier work
P. aeruginosa BAA-2111 = tested on: P. aeruginosa BAA-2111; design: key: R = Resistant; S = Suspectible; I = Intermediate; NT = Note Tested; conditions: strain BAA-2111, isolated from human sputum; cited from earlier work
P. aeruginosa BAA-2112 = tested on: P. aeruginosa BAA-2112; design: key: R = Resistant; S = Suspectible; I = Intermediate; NT = Note Tested; conditions: strain BAA-2112, isolated from human sputum; cited from earlier work
P. aeruginosa BAA-2113 = tested on: P. aeruginosa BAA-2113; design: key: R = Resistant; S = Suspectible; I = Intermediate; NT = Note Tested; conditions: strain BAA-2113, isolated from human sputum; cited from earlier work
P. aeruginosa BAA-2114 = tested on: P. aeruginosa BAA-2114; design: key: R = Resistant; S = Suspectible; I = Intermediate; NT = Note Tested; conditions: strain BAA-2114, isolated from human sputum; cited from earlier work
in vitro = conditions: human, Cytotox CC50
[1] = Cytotoxicity to mammalian cells; conditions: human, 293T cells
Pae 27853 = assay: MIC determination (CLSI, 2-fold serial dilutions); format: cell-based, Pseudomonas aeruginosa
Method: (§1) Assessment of Antimicrobial Activity. […] All plates were placed at 37° C. overnight. After 18 hours the plates were read using a mirrored plate reader and reflected incandescent light. […] Wells at and above the MIC should appear void of growth when read by eye.

Pae 39324 = assay: MIC determination (CLSI, 2-fold serial dilutions); format: cell-based, Pseudomonas aeruginosa
Method: as §1

Eco 25922 = assay: MIC determination (CLSI, 2-fold serial dilutions); format: cell-based, E. coli
Method: as §1

Sau 29213 = assay: MIC determination (CLSI, 2-fold serial dilutions); format: cell-based, S. Aureus
Method: as §1

[2] = LC-MS; 10% human serum (FIG. 8)
Method: Assessment of Serum Stability. […] Twenty μl of each test article was placed in a 2.0 ml round bottom microfuge tube. […] Assay tubes were placed at 37° C. in a rotating rack between time-points. […] Supernatant from each tube was collected and frozen at −20° C. for analysis. Samples were harvested and processed at various time-points up to 6 hours.

293T = assay: Cytotoxicity to mammalian cells

Compound | antibiotic resistance phenotype (P. aeruginosa BAA-2108) | antibiotic resistance phenotype (P. aeruginosa BAA-2109) | antibiotic resistance phenotype (P. aeruginosa BAA-2110) | antibiotic resistance phenotype (P. aeruginosa BAA-2111) | antibiotic resistance phenotype (P. aeruginosa BAA-2112) | antibiotic resistance phenotype (P. aeruginosa BAA-2113) | antibiotic resistance phenotype (P. aeruginosa BAA-2114) | further results
NCC[C@H](O)C(=O)N[C@@H]1C[C@H](N)[C@@H](O[C@H]2O[C@H](CN)[C@@H](O)[C@H](O)[C@H]2O)[C@H](O)[C@H]1O[C@H]1O[C@H](CO)[C@@H](O)[C@H](N)[C@H]1O [Amikacin] | S | S | S | S | S | S | S | –
CC1(C)S[C@@H]2[C@H](NC(=O)[C@H](N)c3ccccc3)C(=O)N2[C@H]1C(=O)O [Ampicillin] | R | R | R | R | R | R | R | –
CC(=O)OCC1=C(C(=O)O)N2C(=O)[C@@H](NC(=O)Cc3cccs3)[C@H]2SC1 [Cefalotin] | R | R | – | R | R | R | R | –
Cc1nnc(SCC2=C(C(=O)O)N3C(=O)[C@@H](NC(=O)Cn4cnnn4)[C@H]3SC2)s1 [Cefazolin] | – | R | R | R | R | R | R | –
CO/N=C(\C(=O)N[C@@H]1C(=O)N2C(C(=O)O)=C(COC(C)=O)CS[C@H]12)c1csc(N)n1 [Cefotaxime] | R | R | R | R | R | R | R | –
CO[C@@]1(NC(=O)Cc2cccs2)C(=O)N2C(C(=O)O)=C(COC(N)=O)CS[C@@H]21 [Cefoxitin] | R | R | R | R | R | R | R | –
CO/N=C(\C(=O)N[C@@H]1C(=O)N2C(C(=O)O)=C(CSc3nc(=O)c(=O)[nH]n3C)CS[C@H]12)c1csc(N)n1 [Ceftriaxone] | – | R | – | R | R | R | R | –
CO/N=C(\C(=O)N[C@@H]1C(=O)N2C(C(=O)OC(C)OC(C)=O)=C(COC(N)=O)CS[C@H]12)c1ccco1 (some centres unmarked) [Cefuroxime Axetil] | R | R | – | R | R | R | R | –
CO/N=C(\C(=O)N[C@@H]1C(=O)N2C(C(=O)O)=C(COC(N)=O)CS[C@H]12)c1ccco1 [Cefuroxime] | R | R | – | R | R | R | R | –
O=C(O)c1cn(C2CC2)c2cc(N3CCNCC3)c(F)cc2c1=O [Ciprofloxacin] | S | S | S | S | S | S | R | –
CC[C@H](C)[C@H](NC(=O)[C@H](CCCCN)NC(=O)[C@H](CCC(=O)O)NC(=O)[C@H](CCCCN)NC(=O)[C@H](CO)NC(=O)[C@H](CCCCN)NC(=O)[C@H](CCCNC(=N)N)NC(=O)[C@H](Cc1ccccc1)NC(=O)[C@H](Cc1ccccc1)NC(=O)[C@H](CC(=O)O)NC(=O)CNC(=O)[C@H](CC(C)C)NC(=O)[C@H](CC(C)C)NC(=O)CNC(=O)CNC(=O)CN)C(=O)NCC(=O)N[C@@H](CCCCN)C(=O)N[C@@H](CCC(=O)O)C(=O)N[C@@H](Cc1ccccc1)C(=O)N[C@@H](CCCCN)C(=O)N[C@@H](CCCNC(=N)N)C(=O)N[C@H](C(=O)N[C@H](C(=O)N[C@@H](CCC(N)=O)C(=O)N[C@@H](CCCNC(=N)N)C(=O)N[C@H](C(=O)N[C@@H](CCCCN)C(=O)N[C@@H](CC(=O)O)C(=O)N[C@@H](Cc1ccccc1)C(=O)N[C@@H](CC(C)C)C(=O)N[C@@H](CCCNC(=N)N)C(=O)N[C@@H](CC(N)=O)C(=O)N[C@@H](CC(C)C)C(=O)N[C@H](C(=O)N1CCC[C@H]1C(=O)N[C@@H](CCCNC(=N)N)C(=O)N[C@H](C(=O)N[C@@H](CCC(=O)O)C(=O)N[C@@H](CO)C(=O)O)[C@@H](C)O)C(C)C)[C@@H](C)CC)C(C)C)[C@@H](C)CC [Peptide P265] | – | – | – | – | – | – | – | CC50 (in vitro): 90 µg/mL (≈ 19.3 µM)
CN(C)c1cc(NC(=O)CNC(C)(C)C)c(O)c2c1C[C@H]1C[C@H]3[C@H](N(C)C)C(O)=C(C(N)=O)C(=O)[C@@]3(O)C(O)=C1C2=O [Tigecycline] | R | R | R | R | R | R | R | –
NC[C@H]1O[C@H](O[C@H]2[C@H](O)[C@@H](O[C@H]3O[C@H](CO)[C@@H](O)[C@H](N)[C@H]3O)[C@H](N)C[C@@H]2N)[C@H](N)C[C@@H]1O [Tobramycin] | – | S | S | S | S | S | S | –
Amoxicillin/Clavulanic Acid | R | R | – | R | R | R | R | –
GGGGIGKFLKKAKKFGKAFVKILKK [Peptide P261] | – | – | – | – | – | – | – | CC50 [1]: 250 µg/mL
GGGGLRKRLRKFRNKIKEKLKKIGQKIQGLLPKLA [Peptide P271] | – | – | – | – | – | – | – | CC50 ([1]; Cytotox CC50, concentration at which 50% cytotoxicity of mammalian cells is observed): 250 µg/mL
GGGGRFKRFRKKFKKLFKKLSPVIPLLHLG [Peptide P267] | – | – | – | – | – | – | – | CC50 (in vitro): 70 µg/mL
GGGHTASDAAAAAALTAANAAAAAAASMA [Peptide P292] | – | – | – | – | – | – | – | MIC Pae 27853 (Pae 27853): >128 μg,/ml; MIC Pae 39324 (Pae 39324): >128 μg,/ml; MIC Eco 25922 (Eco 25922): >128 μg,/ml; MIC Sau 29213 (Sau 29213): >128 μg,/ml; CC50 [1]: 250 µg/mL
GGGKFFRKLKKSVKKRAKEFFKKPRVIGVSIPF [Peptide P297] | – | – | – | – | – | – | – | half-life in the presence of serum [2]: ~20 min; CC50 [1]: 780 µg/mL; cytotoxicity to 293T relative to the MIC (293T): ~200 fold
GGGKRFKKFFKKLKNSVKKRAKKFFKKPRVIGVSIPF [Peptide P296] | – | – | – | – | – | – | – | CC50 [1]: 400 µg/mL
GGGRGLRRLGRKIAHGVKKYGPTVLRIIKKYG [Peptide P294] | – | – | – | – | – | – | – | CC50 (in vitro): 120 µg/mL
Gentamicin | I | S | I | S | S | S | S | –
Piperacillin/Tazobactam | – | S | – | S | S | S | S | –
Trimethoprim/Sulfamethoxazole | R | R | R | R | R | R | R | –
